Reference: ChEMBL document CHEMBL5634090, “Design of phenothiazine-based cationic amphiphilic derivatives incorporating arginine residues: Potential membrane-active broad-spectrum antimicrobials combating pathogenic bacteria in vitro and in vivo” (Eur J Med Chem, 2023)
Converted amounts (≈) assume the structure as drawn.

What was measured:
Staphylococcus aureus [1] = experiment: Antibacterial activity against Staphylococcus aureus ATCC 29213 by microbroth dilution assay; assay type: functional
Staphylococcus aureus [2] = experiment: Antibacterial activity against methicillin resistant Staphylococcus aureus N315 by microbroth dilution assay; assay type: functional
Staphylococcus aureus [3] = experiment: Antibacterial activity against methicillin resistant Staphylococcus aureus NCTC 10442 by microbroth dilution assay; assay type: functional
Escherichia coli = experiment: Antibacterial activity against Escherichia coli ATCC 25922 by microbroth dilution assay; assay type: functional
[4] = Hemolytic activity in rabbit erythrocytes; assay type: toxicity, cell-based, Oryctolagus cuniculus, Erythrocyte
Klebsiella pneumoniae [5] = experiment: Antibacterial activity against Klebsiella pneumoniae ATCC 10031 by microbroth dilution assay; assay type: functional
Klebsiella pneumoniae [6] = experiment: Antibacterial activity against Klebsiella pneumoniae ATCC 14581 by microbroth dilution assay; assay type: functional
Staphylococcus aureus [7] = experiment: Inhibition of biofilm formation in Staphylococcus aureus ATCC 29213 at MIC by crystal violet staining assay relative to control; assay type: functional
Klebsiella pneumoniae [8] = experiment: Inhibition of biofilm formation in Klebsiella pneumoniae ATCC 10031 at MIC by crystal violet staining assay relative to control; assay type: functional
Staphylococcus aureus [9] = experiment: Antibiofilm activity against 24 hrs preformed biofilm in Staphylococcus aureus ATCC 29213 assessed as residual biomass at 4 times MIC relative to control; assay type: functional
Klebsiella pneumoniae [10] = experiment: Antibiofilm activity against 24 hrs preformed biofilm in Klebsiella pneumoniae ATCC 10031 assessed as residual biomass at 4 times MIC relative to control; assay type: functional
Staphylococcus aureus [11] = experiment: Induction of resistance development in Staphylococcus aureus ATCC 29213 assessed as fold increase in MIC treated over 20 serial passages by microdilution assay; assay type: functional
Pseudomonas aeruginosa = experiment: Antibacterial activity against Pseudomonas aeruginosa ATCC 9027 by microbroth dilution assay; assay type: functional
Klebsiella pneumoniae [12] = experiment: Antibacterial activity against Klebsiella pneumoniae ATCC 10031 assessed as log reduction in bacterial load at 8 times MIC measured after 2 hrs by time kill assay; assay type: functional
Klebsiella pneumoniae [13] = experiment: Induction of resistance development in Klebsiella pneumoniae ATCC 10031 assessed as fold increase in MIC treated over 20 serial passages by microdilution assay; assay type: functional

Compound | MIC (Staphylococcus aureus [1]) [µg/mL] | MIC (Staphylococcus aureus [2]) [µg/mL] | MIC (Staphylococcus aureus [3]) [µg/mL] | MIC (Escherichia coli) [µg/mL] | HC50 [4] [µg/mL] | also measured
CCCCCN1c2ccccc2Sc2ccc(OCC(=O)N[C@@H](CCCNC(=N)N)C(=O)OC)cc21 | 12.5 (≈ 24.3 µM) | 3.12 (≈ 6.08 µM) | 6.25 (≈ 12.2 µM) | > 50 | > 200 | 
CC[C@H](C)[C@H](NC(=O)CN)C(=O)NCC(=O)N[C@@H](C)C(=O)N[C@H](C(=O)N[C@@H](CC(C)C)C(=O)N[C@@H](CCCCN)C(=O)N[C@H](C(=O)N[C@@H](CC(C)C)C(=O)N[C@H](C(=O)N[C@H](C(=O)NCC(=O)N[C@@H](CC(C)C)C(=O)N1CCC[C@H]1C(=O)N[C@@H](C)C(=O)N[C@@H](CC(C)C)C(=O)N[C@H](C(=O)N[C@@H](CO)C(=O)N[C@@H](Cc1c[nH]c2ccccc12)C(=O)N[C@H](C(=O)N[C@@H](CCCCN)C(=O)N[C@@H](CCCNC(=N)N)C(=O)N[C@@H](CCCCN)C(=O)N[C@@H](CCCNC(=N)N)C(=O)N[C@@H](CCC(N)=O)C(=O)N[C@@H](CCC(N)=O)C(N)=O)[C@@H](C)CC)[C@@H](C)CC)[C@@H](C)O)[C@@H](C)O)C(C)C)C(C)C [MELITTIN] |  |  |  |  |  | MIC (Klebsiella pneumoniae [5]): 6.25 µg/mL (≈ 2.2 µM); MIC (Klebsiella pneumoniae [6]): 6.25 µg/mL (≈ 2.2 µM); inhibition (INH) (Staphylococcus aureus [7]): >90%; inhibition (INH) (Klebsiella pneumoniae [8]): >90%; Activity (Staphylococcus aureus [9]): >10%; Activity (Klebsiella pneumoniae [10]): <10%
CCOC(=O)COc1ccc2c(c1)Nc1ccccc1S2 | > 50 | > 50 | > 50 | > 50 | > 200 | 
CCn1cc(C(=O)O)c(=O)c2cc(F)c(N3CCNCC3)cc21 [NORFLOXACIN] | 1.56 (≈ 4.89 µM) |  |  |  |  | fold change (FC) (Staphylococcus aureus [11]): 1024
CCCCCCCOc1ccc2c(c1)Nc1ccccc1S2 | > 50 | > 50 | > 50 | > 50 | > 200 | 
CCCCCOc1ccc2c(c1)N(CCCCN)c1ccccc1S2 | 3.12 (≈ 8.76 µM) | 3.12 (≈ 8.76 µM) | 3.12 (≈ 8.76 µM) | 25 (≈ 70.1 µM) | > 200 | 
CC(C)=CCOc1ccc2c(c1)N(CCCCNC(=N)N)c1ccccc1S2 | 1.56 (≈ 3.93 µM) | 0.78 (≈ 1.97 µM) | 0.78 (≈ 1.97 µM) | > 50 | > 200 | 
CCCCCCCOc1ccc2c(c1)N(CCCCNC(=N)N)c1ccccc1S2 | 3.12 (≈ 7.32 µM) | 0.78 (≈ 1.83 µM) | 0.78 (≈ 1.83 µM) | > 50 | > 200 | 
CCCCCN1c2ccccc2Sc2ccc(OCC(=O)N[C@@H](CCCNC(=N)N)C(=O)N[C@@H](CCCNC(=N)N)C(=O)OC)cc21 | 6.25 (≈ 9.33 µM) | 3.12 (≈ 4.67 µM) | 6.25 (≈ 9.33 µM) | > 50 | > 200 | 
CCCCCCCN1c2ccccc2Sc2ccc(OCC(=O)N[C@@H](CCCNC(=N)N)C(=O)N[C@@H](CCCNC(=N)N)C(=O)OC)cc21 | 1.56 (≈ 2.24 µM) | 1.56 (≈ 2.24 µM) | 1.56 (≈ 2.24 µM) | 6.25 (≈ 8.96 µM) | > 200 | MIC (Klebsiella pneumoniae [5]): 25 µg/mL (≈ 35.8 µM); MIC (Klebsiella pneumoniae [6]): 25 µg/mL (≈ 35.8 µM); MIC (Pseudomonas aeruginosa): > 50 µg/mL
CCCCCCCCCN1c2ccccc2Sc2ccc(OCC(=O)N[C@@H](CCCNC(=N)N)C(=O)N[C@@H](CCCNC(=N)N)C(=O)OC)cc21 | 1.56 (≈ 2.15 µM) | 1.56 (≈ 2.15 µM) | 1.56 (≈ 2.15 µM) | 1.56 (≈ 2.15 µM) | > 200 | MIC (Klebsiella pneumoniae [5]): 3.12 µg/mL (≈ 4.3 µM); MIC (Klebsiella pneumoniae [6]): 6.25 µg/mL (≈ 8.61 µM); MIC (Pseudomonas aeruginosa): 50 µg/mL (≈ 68.9 µM)
CCCCCOc1ccc2c(c1)N(CCCN)c1ccccc1S2 | 3.12 (≈ 9.12 µM) | 3.12 (≈ 9.12 µM) | 3.12 (≈ 9.12 µM) | 25 (≈ 73 µM) | > 200 | 
CCCCCCCCCOc1ccc2c(c1)N(CCCCNC(=N)N)c1ccccc1S2 | 3.12 (≈ 6.87 µM) | 1.56 (≈ 3.43 µM) | 1.56 (≈ 3.43 µM) | > 50 | > 200 | 
CCCCCCCCCOc1ccc2c(c1)N(CCCCN)c1ccccc1S2 | 3.12 (≈ 7.57 µM) | 3.12 (≈ 7.57 µM) | 3.12 (≈ 7.57 µM) | > 50 | > 200 | 
CCCCCCCCCN1c2ccccc2Sc2ccc(OCC(=O)N[C@@H](CCCNC(=N)N)C(=O)N[C@@H](CCCNC(=N)N)C(=O)N[C@@H](CCCNC(=N)N)C(=O)OC)cc21 | 1.56 (≈ 1.77 µM) | 0.78 (≈ 0.884 µM) | 1.56 (≈ 1.77 µM) | 3.12 (≈ 3.54 µM) | > 200 | MIC (Klebsiella pneumoniae [5]): 12.5 µg/mL (≈ 14.2 µM); MIC (Klebsiella pneumoniae [6]): 12.5 µg/mL (≈ 14.2 µM); MIC (Pseudomonas aeruginosa): 12.5 µg/mL (≈ 14.2 µM)
CCCCCCCCCOc1ccc2c(c1)Nc1ccccc1S2 | > 50 | > 50 | > 50 | > 50 | > 200 | 
CCCCCCCN1c2ccccc2Sc2ccc(OCC(=O)N[C@@H](CCCNC(=N)N)C(=O)N[C@@H](CCCNC(=N)N)C(=O)N[C@@H](CCCNC(=N)N)C(=O)OC)cc21 | 0.78 (≈ 0.913 µM) | 0.78 (≈ 0.913 µM) | 0.78 (≈ 0.913 µM) | 12.5 (≈ 14.6 µM) | > 200 | 
CCCCCOc1ccc2c(c1)N(CCCCNC(=N)N)c1ccccc1S2 | 1.56 (≈ 3.91 µM) | 1.56 (≈ 3.91 µM) | 1.56 (≈ 3.91 µM) | 6.25 (≈ 15.7 µM) | > 200 | MIC (Klebsiella pneumoniae [5]): 6.25 µg/mL (≈ 15.7 µM); MIC (Klebsiella pneumoniae [6]): 25 µg/mL (≈ 62.7 µM); MIC (Pseudomonas aeruginosa): > 50 µg/mL
CCCCCCCCCN1c2ccccc2Sc2ccc(OCC(=O)N[C@@H](CCCNC(=N)N)C(=O)N[C@@H](CCCNC(=N)N)C(N)=O)cc21 | 1.56 (≈ 2.19 µM) | 1.56 (≈ 2.19 µM) | 0.78 (≈ 1.1 µM) | 1.56 (≈ 2.19 µM) | > 200 | MIC (Klebsiella pneumoniae [5]): 3.12 µg/mL (≈ 4.4 µM); MIC (Klebsiella pneumoniae [6]): 3.12 µg/mL (≈ 4.4 µM); MIC (Pseudomonas aeruginosa): > 50 µg/mL

Compound | MIC (Staphylococcus aureus [1]) [µg/mL] | MIC (Staphylococcus aureus [2]) [µg/mL] | MIC (Staphylococcus aureus [3]) [µg/mL] | MIC (Escherichia coli) [µg/mL] | HC50 [4] [µg/mL] | also measured
CCCCCOc1ccc2c(c1)N(CCCCN(CC)CC)c1ccccc1S2 | 6.25 (≈ 15.1 µM) | 3.12 (≈ 7.57 µM) | 3.12 (≈ 7.57 µM) | > 50 | > 200 | 
CCCCCCCOc1ccc2c(c1)N(CCCCN)c1ccccc1S2 | 3.12 (≈ 8.13 µM) | 1.56 (≈ 4.06 µM) | 3.12 (≈ 8.13 µM) | > 50 | > 200 | 
CC(C)=CCOc1ccc2c(c1)N(CCCCN)c1ccccc1S2 | 6.25 (≈ 17.6 µM) | 6.25 (≈ 17.6 µM) | 6.25 (≈ 17.6 µM) | > 50 | > 200 | 
O=C(O)c1cn(C2CC2)c2cc(N3CCNCC3)c(F)cc2c1=O [CIPROFLOXACIN] |  |  |  |  |  | MIC (Klebsiella pneumoniae [5]): 0.195 µg/mL (≈ 0.589 µM); MIC (Klebsiella pneumoniae [6]): 0.195 µg/mL (≈ 0.589 µM); MIC (Pseudomonas aeruginosa): 0.195 µg/mL (≈ 0.589 µM); log(activity) (Klebsiella pneumoniae [12]): 2.27; fold change (FC) (Klebsiella pneumoniae [13]): 128
CCCCCOc1ccc2c(c1)N(CCCNC(=N)N)c1ccccc1S2 | 1.56 (≈ 4.06 µM) | 1.56 (≈ 4.06 µM) | 0.78 (≈ 2.03 µM) | > 50 | > 200 | 
CCCCCCCCCN1c2ccccc2Sc2ccc(OCC(=O)OCC)cc21 | > 50 | > 50 | > 50 | > 50 | > 200 | 
CCCCCOc1ccc2c(c1)Nc1ccccc1S2 | > 50 | > 50 | > 50 | > 50 | > 200 | 
COc1ccc2c(c1)Nc1ccccc1S2 | > 50 | > 50 | > 50 | > 50 | > 200 | 
CCCCCN1c2ccccc2Sc2ccc(OCC(=O)OCC)cc21 | > 50 | > 50 | > 50 | > 50 | > 200 | 
CCCCCOc1ccc2c(c1)N(CCCCCCN(CC)CC)c1ccccc1S2 | 3.12 (≈ 7.09 µM) | 1.56 (≈ 3.54 µM) | 3.12 (≈ 7.09 µM) | > 50 | > 200 | 
CC(C)=CCOc1ccc2c(c1)Nc1ccccc1S2 | > 50 | > 50 | > 50 | > 50 | > 200 | 
CCCCCOc1ccc2c(c1)N(CCCCCCCCNC(=N)N)c1ccccc1S2 | 1.56 (≈ 3.43 µM) | 1.56 (≈ 3.43 µM) | 1.56 (≈ 3.43 µM) | > 50 | > 200 | 
CCCCCOc1ccc2c(c1)N(CCCCCCN)c1ccccc1S2 | 3.12 (≈ 8.13 µM) | 1.56 (≈ 4.06 µM) | 1.56 (≈ 4.06 µM) | > 50 | > 200 | 
CCCCCOc1ccc2c(c1)N(CCCCCCCCN(CC)CC)c1ccccc1S2 | 3.12 (≈ 6.67 µM) | 3.12 (≈ 6.67 µM) | 3.12 (≈ 6.67 µM) | > 50 | > 200 | 
CCCCCOc1ccc2c(c1)N(CCCCCCCCN)c1ccccc1S2 | 3.12 (≈ 7.57 µM) | 3.12 (≈ 7.57 µM) | 3.12 (≈ 7.57 µM) | > 50 | > 200 | 
Oc1ccc2c(c1)Nc1ccccc1S2 | > 50 | > 50 | > 50 | > 50 | > 200 | 
CCCCCOc1ccc2c(c1)N(CCCCCCNC(=N)N)c1ccccc1S2 | 1.56 (≈ 3.66 µM) | 1.56 (≈ 3.66 µM) | 1.56 (≈ 3.66 µM) | > 50 | > 200 | 
CCCCCCCN1c2ccccc2Sc2ccc(OCC(=O)OCC)cc21 | > 50 | > 50 | > 50 | > 50 | > 200 | 
CC1(C)S[C@@H]2[C@H](NC(=O)[C@H](N)c3ccc(O)cc3)C(=O)N2[C@H]1C(=O)O [AMOXICILLIN] |  |  |  | 6.25 (≈ 17.1 µM) |  | 
